Test results: patent US12600698B2, “Kinase inhibitors” (Vidya Therapeutics, Inc., priority 2021, dated 2026)

Experiments:
BTK [1] = target: T1, BTK (Homo sapiens, UniProt Q06187); test: BTK IC50 (EZ reader kinase assay); format: biochemical; design: purchased Carna; settings: ATP 1 mM, BTK 2 nM, 90 minutes at room temperature
Method: Solutions of compounds (test or control) in DMSO were prepared at the desired concentrations, and serially diluted to 11 concentrations by 3-fold dilution in 384pp-plate using TECAN EVO200. 20 nL of stock were transferred to 384 plate using Echo550. DMSO was used as vehicle control.
Two separate solutions were prepared—an ATP solution containing MgCl2 (10 mM), Brij-35 (0.01%), DTT (2 mM), BSA (0.05%), EGTA (1 mM), HEPE (pH7.5) (50 mM), FLPeptide (6 uM) and ATP (4 mM); and a BTK solution containing MgCl2 (10 mM), Brij-35 (0.01%), DTT (2 mM), BSA (0.05%), EGTA (1 mM), HEPE (pH7.5) (50 mM) and BTK (2.67 nM). (BTK was obtained from Carna; FLPeptide2 was obtained from PerkinElmer and Ibrutinib was obtained from Selleck.) 5 uL of ATP solution were added to each well, followed by addition of 15 uL of BTK solution to initiate the reaction. (Note the final volume of each well was 20 uL containing MgCl2 (10 mM), Brij-35 (0.01%), DTT (2 mM), BSA (0.05%), EGTA (1 mM), HEPE (pH7.5) (50 mM), FLPeptide (1.5 uM), ATP (1 mM) and BTK (2 nM). The plates were incubated at room temperature for 90 minutes and then stopping buffer added (75 uL, containing 0.5 M EDTA) to terminate the reaction. Samples from each well were analyzed using EZ reader.
The % remaining activity was calculated using read conversion ratio (CR) according to the equation: […]
XLFit (equation 201) was used to calculate IC50's by floating both bottom and top.
BTK IC50 values are provided in Table 5, for the compounds described in Examples 1-13, wherein: • “A” denotes an IC50<1 nM; • “B” denotes an IC50 1-10 nM; and • “C” denotes an IC50>10 nM.

BTK [2] = target: T1, BTK; test: Assay to determine BTK inactivation rate (active site probe ELISA, human whole blood); format: cell-based; design: tissue StemExpress; host or cells: human whole blood; settings: 37° C., 5-60 minutes, read-out: BTK hWB (Kinact/Ki)
Method: This example employed a BTK active site probe-based assay using a biotinylated covalent inhibitor in human and mouse blood or mouse brain lysate.
Human whole blood was obtained from StemExpress (Stockton, CA) and kept at ambient temperature until the time of the experiment, which was approximately 24 hours after it had been collected. • 1. A 1× lysis buffer was prepared by using 10× lysis buffer (Cell Signaling Technology, #9083S, Danvers, MA), molecular biology grade water, 100× Halt Protease and Phosphatase Inhibitor Cocktail, (ThermoFisher, #78440, Waltham, MA), and BTK active site probe (final: 0.4 μM). This was prepared fresh each experimental day. • 2. Lysis buffer was added in the volume of 30 μL to all wells in a V-bottom plate (Greiner Bio-One, #651261, Monroe, NC) in preparation for timepoint collections. • 3. Compounds were reconstituted to stocks of 10 mM in 100% DMSO and were diluted in 2-fold serial dilutions to generate an 8-point curve in DMSO, with the last point being DMSO only. • 4. A working 10× dilution series was created using 1 μL of the prepared DMSO titration into […] 1×PBS in order to keep the DMSO constant (0.03% DMSO final). • 5. The whole blood was added in the volume of 225 μL per well in a new 96 w v-bottom plate. • 6. For compound treatment, 25 μL of the 10× dilution series in PBS was added to the 225 μL whole blood, followed by briefly pipetting up and down, twice. • 7. The plates were then covered with plastic lids and incubated at 37° C. for 5, 10, 15, 30, 60 minutes. • 8. At each timepoint, 30 μL of compound- or DMSO (vehicle)-treated blood is pulled from each column and added to preloaded collection plates that contained 30 μL of lysis buffer supplemented with BTK active site probe. Samples were then mixed briefly by pipetting up and down, twice. • 9. The plates with collected and lysed samples were shaken and covered with sealing film on a rotator for 60 minutes at room temperature. These samples were used fresh for detection via ELISA, and remaining sample was frozen at −80° C. if a repeat was necessary. Determining Amount of Unoccupied BTK Using ELISA • 1. All streptavidin pre-coated plates (R&D Systems, #CP004, Minneapolis, MN) were brought to room temperature while samples are lysing. • 2. Assay Buffer 1, 1×PBS+0.05% Tween 20+1% BSA was prepared, filtered, and stored at 4° C. when not in use. • 3. Using this Assay Buffer 1, assay buffer+1× protease/phosphatase inhibitor cocktail (PICS) was prepared in the amount needed for all samples. • 4. Assay Buffer+PICS in the volume of 90 μL/well was added to the ELISA plate for blood samples. • 5. Assay Buffer+PICs in the volume of 50 μL/well was added to the ELISA plate for brain samples. • 6. Lysed blood sample (10 μL) was added to the ELISA plate. • 7. Lysed brain sample (50 μL) was added to the ELISA plate. • 8. Samples were loaded into the ELISA plate for a total of 100 μL/well, in duplicate, and remained in the plate, sealed, overnight at 4° C. • 9. The following day, the plate was washed three times with 1× Wash Buffer (1×PBS+0.05% Tween 20) at 250 μL/well using a plate washer. • 10. The plate was inverted to expel all fluid each time and blotted on clean paper towels to remove remaining liquid. • 11. Assay Buffer 2 was prepared (1×PBS+0.05% Tween 20+0.5% BSA) and kept at 4° C. when not in use. • 12. The primary antibody α-BTK (clone D3H5, Cell Signaling Technology #8547S Danvers, MA) was diluted 1:500 in Assay Buffer 2. • 13. Diluted a-BTK antibody was added at 100 μL/well. • 14. The plate was covered with adhesive film and incubated for 90 minutes at room temperature. • 15. The plate was washed three times with 1× Wash Buffer at 250 μL/well using a plate washer. • 16. The plate was inverted to expel all fluid each time and blotted on clean paper towels to remove remaining liquid. • 17. The detection antibody (Jackson Immuno Research, #711-005-152) was diluted 1:2,500 with Assay Buffer 2. • 18. The diluted antibody was added at 100 μL/well. • 19. […]

T1 sequence (Q06187 whole entry): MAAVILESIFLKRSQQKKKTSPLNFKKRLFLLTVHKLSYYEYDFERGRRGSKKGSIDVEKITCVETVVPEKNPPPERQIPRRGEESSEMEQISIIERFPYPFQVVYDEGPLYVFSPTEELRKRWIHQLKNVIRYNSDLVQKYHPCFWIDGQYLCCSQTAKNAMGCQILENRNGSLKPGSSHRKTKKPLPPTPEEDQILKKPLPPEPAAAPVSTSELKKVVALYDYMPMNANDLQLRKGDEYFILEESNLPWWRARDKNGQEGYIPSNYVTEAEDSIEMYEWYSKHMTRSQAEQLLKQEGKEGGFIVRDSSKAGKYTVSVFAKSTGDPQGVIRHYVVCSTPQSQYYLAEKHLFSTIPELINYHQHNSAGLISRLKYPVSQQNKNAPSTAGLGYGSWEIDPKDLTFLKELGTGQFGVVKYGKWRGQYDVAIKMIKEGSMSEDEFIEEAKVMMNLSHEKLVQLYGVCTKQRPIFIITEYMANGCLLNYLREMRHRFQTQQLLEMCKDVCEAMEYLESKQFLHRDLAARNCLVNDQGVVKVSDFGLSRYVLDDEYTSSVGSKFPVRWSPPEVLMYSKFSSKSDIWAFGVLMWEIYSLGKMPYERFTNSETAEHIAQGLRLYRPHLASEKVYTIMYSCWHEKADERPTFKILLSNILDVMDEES

CC#CC(=O)N[C@@H]1CCC=C(c2c(F)cc(C(N)=O)c3[nH]c(C)c(Cl)c23)C1 [1A(R), (R)-4-(5-(but-2-ynamido)cyclohex-1-en-1-yl)-3-chloro-5-fluoro-2-methyl-1H-indole-7-carboxamide]
IC50 (BTK [1]): 1 to 10 nM
kinact/KI (BTK [2]): < 8330 M⁻¹ s⁻¹

CC#CC(=O)N[C@H]1CCC=C(c2c(F)cc(C(N)=O)c3[nH]c(C)c(Cl)c23)C1 [1A(S), (S)-4-(5-(but-2-ynamido)cyclohex-1-en-1-yl)-3-chloro-5-fluoro-2-methyl-1H-indole-7-carboxamide]
IC50 (BTK [1]): < 1 nM
kinact/KI (BTK [2]): < 8330 M⁻¹ s⁻¹

CC#CC(=O)N[C@@H]1CCC=C(c2c(F)c(F)c(C(N)=O)c3[nH]c(C)c(Cl)c23)C1 [2A(R), (R)-4-(5-(but-2-ynamido)cyclohex-1-en-1-yl)-3-chloro-5,6-difluoro-2-methyl-1H-indole-7-carboxamide]
IC50 (BTK [1]): 1 to 10 nM
kinact/KI (BTK [2]): < 8330 M⁻¹ s⁻¹

CC#CC(=O)N[C@H]1CCC=C(c2c(F)c(F)c(C(N)=O)c3[nH]c(C)c(Cl)c23)C1 [2A(S), (S)-4-(5-(but-2-ynamido)cyclohex-1-en-1-yl)-3-chloro-5,6-difluoro-2-methyl-1H-indole-7-carboxamide]
IC50 (BTK [1]): < 1 nM
kinact/KI (BTK [2]): > 16700 M⁻¹ s⁻¹

CC#CC(=O)N[C@H]1CCC=C(c2c(F)cc(C(N)=O)c3[nH]c(C)c(C)c23)C1 [3A(S), (S)-4-(5-(but-2-ynamido)cyclohex-1-en-1-yl)-5-fluoro-2,3-dimethyl-1H-indole-7-carboxamide]
IC50 (BTK [1]): < 1 nM
kinact/KI (BTK [2]): > 16700 M⁻¹ s⁻¹

CC#CC(=O)N[C@@H]1C=C(c2c(F)cc(C(N)=O)c3[nH]c(C)c(C)c23)CCC1 [3B(S), (S)-4-(3-(but-2-ynamido)cyclohex-1-en-1-yl)-5-fluoro-2,3-dimethyl-1H-indole-7-carboxamide]
IC50 (BTK [1]): 1 to 10 nM
kinact/KI (BTK [2]): > 16700 M⁻¹ s⁻¹

CC#CC(=O)N[C@@H]1C=C(c2c(F)cc(C(N)=O)c3[nH]c(C)c(Cl)c23)CCC1 [5B(S), (S)-4-(3-(but-2-ynamido)cyclohex-1-en-1-yl)-3-chloro-5-fluoro-2-methyl-1H-indole-7-carboxamide]
IC50 (BTK [1]): 1 to 10 nM
kinact/KI (BTK [2]): < 8330 M⁻¹ s⁻¹

CC#CC(=O)N[C@H]1CCC[C@@H](c2c(F)cc(C(N)=O)c3[nH]c(C)c(Cl)c23)C1 [6-(1R,3S), 4-((1R,3S)-3-(but-2-ynamido)cyclohexyl)-3-chloro-5-fluoro-2-methyl-1H-indole-7-carboxamide]
IC50 (BTK [1]): 1 to 10 nM
kinact/KI (BTK [2]): < 8330 M⁻¹ s⁻¹

CC#CC(=O)N[C@H]1CCC[C@H](c2c(F)cc(C(N)=O)c3[nH]c(C)c(Cl)c23)C1 [6-(1S,3S), 4-((1S,3S)-3-(but-2-ynamido)cyclohexyl)-3-chloro-5-fluoro-2-methyl-1H-indole-7-carboxamide]
IC50 (BTK [1]): 1 to 10 nM
kinact/KI (BTK [2]): 8330 to 16700 M⁻¹ s⁻¹

CC#CC(=O)N[C@H]1CCC[C@H](c2c(F)cc(C(N)=O)c3[nH]c(C)c(C)c23)C1 [10-(1S,3S), 4-((1S,3S)-3-(but-2-ynamido)cyclohexyl)-5-fluoro-2,3-dimethyl-1H-indole-7-carboxamide]
IC50 (BTK [1]): 1 to 10 nM
kinact/KI (BTK [2]): < 8330 M⁻¹ s⁻¹

CC#CC(=O)N[C@@H]1CCC[C@@H](c2c(F)c(F)c(C(N)=O)c3[nH]c(C)c(Cl)c23)C1 [11-(1R,3R), 4-[(1R,3R)-3-(but-2-ynoylamino)cyclohexyl]-3-chloro-5,6-difluoro-2-methyl-1H-indole-7-carboxamide]
IC50 (BTK [1]): 1 to 10 nM
kinact/KI (BTK [2]): < 8330 M⁻¹ s⁻¹

CC#CC(=O)N[C@H]1CC[C@@H](c2c(F)cc(C(N)=O)c3[nH]c(C)c(C)c23)C1 [12-(1R,3S), 4-((1R,3S)-3-(but-2-ynamido)cyclopentyl)-5-fluoro-2,3-dimethyl-1H-indole-7-carboxamide]
IC50 (BTK [1]): 1 to 10 nM
kinact/KI (BTK [2]): < 8330 M⁻¹ s⁻¹

CC#CC(=O)N[C@@H]1CCC[C@@H](c2c(F)c(F)c(C(N)=O)c3[nH]c(C)c(C#N)c23)C1 [Compound 7-(1R,3R), 4-((1R,3R)-3-(but-2-ynamido)cyclohexyl)-3-cyano-5,6-difluoro-2-methyl-1H-indole-7-carboxamide]
IC50 (BTK [1]): 1 to 10 nM
kinact/KI (BTK [2]): 8330 to 16700 M⁻¹ s⁻¹

CC#CC(=O)N[C@H]1CCC[C@@H](c2c(F)c(F)c(C(N)=O)c3[nH]c(C)c(C#N)c23)C1 [Compound 7-(1R,3S), 4-((1R,3S)-3-(but-2-ynamido)cyclohexyl)-3-cyano-5,6-difluoro-2-methyl-1H-indole-7-carboxamide]
IC50 (BTK [1]): 1 to 10 nM
kinact/KI (BTK [2]): < 8330 M⁻¹ s⁻¹

CC#CC(=O)N[C@H]1CCC[C@@H](c2c(F)c(F)c(C(N)=O)c3[nH]c(C)c(Cl)c23)C1 [Compound 11-(1R,3S), 4-((1R,3S)-3-(but-2-ynamido)cyclohexyl)-3-chloro-5,6-difluoro-2-methyl-1H-indole-7-carboxamide]
IC50 (BTK [1]): 1 to 10 nM
kinact/KI (BTK [2]): < 8330 M⁻¹ s⁻¹

CC#CC(=O)N[C@@H]1CC[C@@H](c2c(F)cc(C(N)=O)c3[nH]c(C)c(C)c23)C1 [Compound 13-(1R,3R), 4-((1R,3R)-3-(but-2-ynamido)cyclopentyl)-5-fluoro-2,3-dimethyl-1H-indole-7-carboxamide]
IC50 (BTK [1]): 1 to 10 nM
kinact/KI (BTK [2]): < 8330 M⁻¹ s⁻¹
